{"source": "patent US11793816B2", "about": "“Methods for enhancing cytotoxic cancer therapy through inhibition of ATG4B” (Northwestern University, priority 2019, dated 2023)", "key": {"[1]": {"experiment": "Pharmacokinetic studies in mice: NSC185058 in plasma, brain and liver by LC-MS/MS", "type": "in vivo", "conditions": "for Cmax / AUC / half-life: plasma; for Cmax: read-out: average maximum plasma concentration (Cmax); for AUC: read-out: Area under the curve (AUC) for the plasma; for half-life: read-out: elimination half-life (converted)", "experimental": "FIG. 1. NSC185058 (NSC) effectively distributes to the plasma, the brain, and the liver with minimal toxicity in mice. (A) to (C) Mice were dosed with peanut oil vehicle or ATG4B antagonists NSC185058 at doses of 10 or 50 mg/kg body weight. Plasma, the brain, and the liver tissues were collected at the indicated time points. (A) Total concentrations of the NSC compound in plasma were measured by LC-MS/MS. The PK parameter of NSC in plasma was determined. (B) NSC levels in plasma were determined form 5 min to 24 hr post dosing. The chemical structure of NSC was shown. (C) NSC levels were determined in the plasma, the brain, and the liver tissues at 0.5 and 8 hr post dosing. (D) Hematoxylin and eosin stained section s of indicated organs that were treated with NSC (150 mg/kg body weight) or vehicle on Monday, Wednesday, and Friday for three weeks. Scale bars, 50 μm. n=3 mice/group/time point.\nAthymic (Ncr nu/nu) mice were injected intraperitoneal (i.p.) with peanut oil vehicle or ATG4B antagonists NSC185058 (50 mg/kg body weight for high does group and 10 mg/kg body weight for low does group). Mouse blood was withdrawn by terminal cardiac puncture while the animals were anesthetized with isoflurane. Blood samples were collected in tubes containing K2EDTA as the anticoagulant at 5, 15, and 30 minutes; 1, 2, 4, 8, and 24 hours post-dose for treatment groups. Mouse brain and liver tissue were also collected from the study animals at 1, 2, 4, and 8 hours post-dose. Control group animals were sacrificed at 24 hours after vehicle injection. Blood samples were centrifuged within one hour of collection and plasma was frozen at approximately −80° C. until analyzed at for concentration of the drug. Total concentrations of the NSC185058 compound in the plasma, the liver, and the brain were measured by LC-MS/MS at Illinois Institute of Technology Research Institute.\nThe NSC was administered at the dose of 10 or 50 mg/kg body weight in group of three mice. At the indicated time points spanning a 24 hrs period ([…], 0.5, 1, 2, 4, 8, and 24 hour), the plasma, the brain, and the liver tissues were collected. Plasmid and extracts from the brain and the liver were analyzed by LC-MS/MS using method developed at the Illinois Institute of Technology Research Institute (IITRI). […] Plasma exposure appears to increase beyond the hinge in dose for the dosing range tested. The elimination half-life was 2 and 4 for the 10 and 50 mg/kg dose, respectively. […] To examine whether NSC is tolerated in mouse, we investigated the effect induced by NSC in mouse behavior or by pathologic analysis of vital organs including the brain, the heart, the liver, the lung, the kidney, and the spleen. Mice underwent treatments on Monday, Wednesday, and Friday for three week with either peanut oil (vehicle) or NSC (150 mg/kg body weight) in peanut oil. […] Animal tissues were collected one week after the last dosing and subject for hematoxylin and eosin staining."}, "GSC83 and GBM43 cells": {"tested_on": "GSC83 and GBM43 cells", "experiment": "Cell viability / proliferation after NSC, IR, TMZ alone or combined", "type": "cell-based", "conditions": "NSC combined with IR or/and TMZ vs single treatments, 72 hours"}, "[2]": {"tested_on": "LC3B lipidation and p62/SQSTM1 in GSCs and GBM cells", "experiment": "Immunoblot of autophagy markers after NSC, IR, TMZ", "type": "cell-based", "conditions": "NSC with IR or/and TMZ", "protocol": "(A) GBM stem-like cells, GSCTS576, and patient-derived xenograft cells, GBM44, were treated with NSC, IR or/and TMZ at the indicated concentrations and combinations for 72 hours. Thereafter, cells were analyzed for cellular viability. Data are shown as mean±SD, n=3 of biological replicates. #, Combination vs. TMZ, P<0.01; &, Combination vs. IR, P<0.01; *, Combination vs. NSC, P<0.01 (B) GSCTS576 and GBM44 cells were treated with NSC, IR or and TMZ with indicated concentration or does for 48 hours, stained with Annexin V/PI, and analyzed by flow cytometry; n=3 biological replicates. Data are shown as mean±SD. #, Combination vs. TMZ, P<0.01; &, Combination vs. IR, P<0.01; *, Combination vs. NSC, P<0.01. (C) TS576 GSCs and GBM44 with indicated treatments were collected and analyzed for levels of the indicated proteins. […]\nTo determine the effect of combination treatment with NSC185058 and irradiation (IR) or/and TMZ, stem-like glioma cells (GSC83) and patient-derived xenograft GBM (GBM43) cells, were treated with NSC185058, TMZ, IR or the combination of two or three treatments and examined cellular proliferation modulation. […] Toward this end, we analyzed protein expression of autophagy marker protein LC3B and p62/SQSTM1, an established autophagy substrate, DNA damage indicator γH2AFX/γH2AX and apoptosis indicator cleaved CASP3/caspase-3 in both tested cell lines."}, "[3]": {"tested_on": "LC3B puncta in GSC M83 and JK83 cells", "experiment": "LC3B immunofluorescence (puncta, autophagosomes)", "type": "cell-based", "conditions": "NSC in cells treated with AZD2014", "experimental": "FIG. 6. NSC enhanced the cytotoxicity of a mTORC1/2 inhibitor AZD2014 in GSCs. (A) GSC M83 and JK83 were exposed to DMSO control vs AZD2014 vs NSCs vs AZD2014 in combination with NSC for 72 hr. Cells were collected for immunoblot analysis using indicated antibodies. (B) Immunofluorescence analyses for LC3B puncta in GSC M83 and JK83 cells with indicated treatments. (C and D) GSC M83 and JK83 and/or neural progenitor cells (NPC) were treated as indicated in (A), cell viability was tested at 72 h after treatment (C), and cell apoptosis was measured by Annexin V FACS assay 48 h after treatment. Data are representative from three independent experiments with similar results.\nImmunofluorescent staining. GSCs were seeded onto LabTek CC2-treated tissue culture slides (Thermo Fisher) and cultured for 24 hours. Cells were then fixed with 4% formaldehyde (Fisher) for 15 min, and permeabilized with 0.1% Triton X-100, and then blocked with AquaBlock (East Coast Bio, North Berwick, Me.) for 60 minutes. The slides were incubated with indicated primary antibodies according to the manufacturer's instructions. After being washed for three times with PBS-T, cells were incubated with secondary antibody (Alexa 488 and 594, 1:200) and DAPI-containing mounting solution Vectashield (Vector Laboratories). Cells were analyzed on a Nikon inverted microscope Eclipse Ti-U equipped with a digital camera. […]"}, "[4]": {"tested_on": "intracranial PDX GBM39 tumor xenografts", "experiment": "Intracranial PDX GBM39 xenograft model (BLI, body weight, survival)", "conditions": "monotherapy", "protocol": "(A) Designs for Combination Therapy of Targeting Autophagy using NSC (150 mg/kg, Monday, Wednesday, and Friday), IR (2 Gy/day for 5 consecutive days), TMZ (100 mg/kg/day), RT+NSC, TMZ+NSC or RT+TMZ+NSC for PDX GBM39 model. (B) Body weight curves of different groups. Values represent the mean±SEM (n=8). *p<0.05, **p<0.01 compared to vehicle controls. (C) Relative changes in bioluminescent (BLI) signals of intracranial xenograft tumors with vehicle control or indicated treatment. n=8/group. *p<0.05, **p<0.01 compared to vehicle controls. Values represent the mean±SEM (n=8). *p<0.05, **p<0.01 compared to vehicle controls. (D) Representative bioluminescent images of mice-bearing intracranial xenografts with indicated treatments. NSC, IR, TMZ, and the indicated combinations. Treatments were started at day 7 post implantation. Mice were imaged after the last treatment. […] (E) Kaplan-Meier (left) and log-rank p value analyses (right) of mice bearing GSC 83 orthotopic xenografts with indicated treatments. […]\nAthymic (Ncr nu/nu) mice at 6-8 week age were obtained from Taconic Farms. […] When Bioluminescent imaging (BLI) was detected in all animal, which were randomized into different treatment groups. […] Mice were monitored every day until the onset of neurological symptoms due to tumor burden. The tumor growth was monitored using the bioluminescent imaging (BLI) station (Caliper Life Sciences)."}, "[5]": {"conditions": "athymic Ncr nu/nu, mouse, IP 10 mg/kg"}, "[6]": {"conditions": "athymic Ncr nu/nu, mouse, IP 50 mg/kg"}}, "note": "Where two headings read alike, the source gives them in different places.", "data": [{"smiles": "S=C(Nc1ccccn1)c1ccccn1", "note": "[NSC185058, N-pyridin-2-yl-pyridine-2-carbothioamide]", "values": [{"measurement": "blood-brain barrier penetration", "setting": "[1]", "value": "excellent blood/brain barrier (BBB) penetration"}, {"measurement": "Cmax", "setting": "[1]; athymic Ncr nu/nu, mouse, IP single dose 10 mg/kg", "value": 2.6, "unit": "µM"}, {"measurement": "Cmax", "setting": "[1]; athymic Ncr nu/nu, mouse, IP single dose 50 mg/kg", "value": 33, "unit": "µM"}, {"measurement": "Kp", "setting": "[1]; athymic Ncr nu/nu, mouse, IP, brain vs plasma, read-out: average brain tissue concentration relative to that in the plasma at the same time points", "value": "0.4 to 1"}, {"measurement": "concentration at 0.5 h", "setting": "[1]; athymic Ncr nu/nu, mouse, brain, 50 mg/kg, 0.5 hrs post IP dose, read-out: Average brain tissue concentration", "value": 12000, "unit": "ng/g"}, {"measurement": "concentration at 8 h", "setting": "[1]; athymic Ncr nu/nu, mouse, brain, 50 mg/kg, 8 hrs post IP dose, read-out: Average brain tissue concentration", "value": 4100, "unit": "ng/g"}, {"measurement": "AUC", "setting": "[1]; [5]", "value": 2.14, "unit": "µg·h/mL"}, {"measurement": "half-life", "setting": "[1]; [5]", "value": 2, "unit": "h"}, {"measurement": "AUC", "setting": "[1]; [6]", "value": 57.2, "unit": "µg·h/mL"}, {"measurement": "half-life", "setting": "[1]; [6]", "value": 4, "unit": "h"}, {"measurement": "blood-brain barrier penetration", "setting": "[1]; listed as NSC", "value": "penetrates the tumor blood-brain barrier at sufficient levels"}, {"measurement": "tumor cell proliferation", "setting": "GSC83 and GBM43 cells", "value": "more reduction in tumor cell proliferation cells than single treatments"}, {"measurement": "sensitization to IR or/and TMZ (LC3B lipidation, p62)", "setting": "[2]", "value": "sensitized the tested cells to IR or/and TMZ by suppressing LC3B lipidation and increasing p62"}, {"measurement": "autophagosomes number (LC3 B immunofluorescence)", "setting": "[3]", "value": "markedly decreased"}, {"measurement": "survival analysis (growth-suppressive effects, FIG. 4E)", "setting": "[4]", "value": "not IR or NSC single treatment resulted in growth-suppressive effects"}]}]}
